pKd: −log10 of the molar value.
Biological target: Human insulin (HI) (Homo sapiens, UniProt P01308)
Test: ITC, insulin titrated into CBBG, one-site model
Format: binding

Human insulin (HI), sequence (P01308 25-54): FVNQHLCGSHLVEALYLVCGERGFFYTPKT
Human insulin (HI), sequence (P01308 90-110): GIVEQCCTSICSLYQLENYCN

- pKd: 4.90
SMILES: CCOc1ccc(Nc2ccc(/C(=C3C=C/C(=[N+](/CC)Cc4cccc(S(=O)(=O)[O-])c4)C=C/3C)c3ccc(N(CC)Cc4cccc(S(=O)(=O)O)c4)cc3C)cc2)cc1 [Coomassie Brilliant Blue G-250]
